Where a SMILES comes first, the peptide text is derived from it. Bridges are numbered along the chain shown (N, C = ends).
System: L. monocytogenes EGDe
Experiment: Antimicrobial activity of NHS-fluorescein labelled versus unlabelled peptides (zone sizes)
Type: cell-based, Listeria monocytogenes
Conditions: 50 µM, 20 µL spotted on LEB agar seeded with L. monocytogenes EGDe, overnight 37 °C
Method: HPLC purified stock solutions of nisin A, plantaricin 423 and bacST4SA were prepared by dissolving the peptides in sterile ultrapure water. Immediately before conjugating NHS-fluorescein to the peptides, a stock solution of NHS-fluorescein was prepared by dissolving 1 mg of reagent in 100 µL DMF. The amount of NHS-fluorescein to be added to each peptide was calculated using the Eqs (2) and (3):2 mLpeptide×mgpeptide/mLpeptide×mmolpeptide/mgpeptide×15mmolNHS/mmolpeptide=mmolNHS 3 mmolNHS×473.4(MWofNHS)/mmolNHS×100µLDMF/1mg=µLNHS
The calculated concentration of NHS-fluorescein was added to the peptides and incubated on ice for 2 h. Non-reacted NHS-fluorescein was removed by Sep-Pak C18 column chromatography. Plantaricin 423 and bacST4SA were eluted with 60% acetonitrile containing 0.1% TFA and nisin A with 40% acetonitrile containing 0.1% TFA. Peptides were freeze dried and resuspended in sterile ultrapure water. Concentrations of the labelled peptides were determined with the BCA assay and diluted to 50 µM. Labelled peptides were filtered through a 0.45 µm HVLP membrane and spotted (20 µL) onto LEB agar seeded with 1% L. monocytogenes EGDe (OD600 0.1). Plates were incubated overnight at 37 °C and the fluorescent peptides visualised under a UVP 3UV Ultraviolet Lamp. Inhibition zones were measured using ImageJ software and compared to those of non-labelled peptides.

For `CC(C)C[C@@H]1NC(=O)[C@H](Cc2c[nH]cn2)NC(=O)[C@H](CO)NC(=O)[C@H](C(C)C)NC(=O)[C@H](CO)NC(=O)[C@@H](NC(=O)[C@H](CO)NC(=O)[C@H](Cc2ccccc2)NC(=O)[C@H](C)NC(=O)[C@H](CCC(N)=O)NC(=O)CNC(=O)[C@H](Cc2c[nH]c3ccccc23)NC(=O)[C@H](CC(N)=O)NC(=O)[C@@H](NC(=O)[C@H](CO)NC(=O)[C@@H]2CSSC[C@H](NC(=O)[C@@H](NC(=O)[C@@H](NC(=O)CNC(=O)[C@H](CC(N)=O)NC(=O)CNC(=O)[C@H](Cc3ccc(O)cc3)NC(=O)[C@H](Cc3ccc(O)cc3)NC(=O)[C@@H](N)CCCCN)C(C)C)[C@@H](C)O)C(=O)NCC(=O)N[C@@H](CCCCN)C(=O)N[C@@H](Cc3c[nH]cn3)C(=O)N[C@@H](CO)C(=O)N2)C(C)C)CSSC[C@@H](C(=O)O)NC(=O)[C@H](CCCCN)NC(=O)CNC(=O)[C@H](Cc2c[nH]cn2)NC(=O)CNC(=O)[C@H](Cc2ccccc2)NC(=O)[C@H](CC(N)=O)NC(=O)[C@H](C)NC1=O` [plantaricin 423] (H-KYYGNGVTCGKHSCSVNWGQAFSCSVSHLANFGHGKC-OH; disulfide 9-14, 24-37; N-terminus and C-terminus assumed), the “decrease in activity of labelled versus unlabelled peptide (antimicrobial zone sizes)” value was 24%.
